Measurements reported in PubChem BioAssay AID651703 (Broad Institute, 2012).

These molecules were tested against Transforming acidic coiled-coil-containing protein 3 (Homo sapiens) (UniProt Q9Y6A5) (assay: inhibition of ARNT PAS-B/TACC3 complex formation – biochemical, AlphaScreen, cherry-picked samples, confirmation (AID 651703;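 note: TACC3 partner is the GST-tagged E629A mutant dimer; hits lower the signal meaning they disrupt ARNT binding to TACC3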)). Settings: AlphaScreen His-ARNT PAS-B / GST-TACC3 binding, luminescence.

Structure (SMILES)	AC50 [µM]
COc1ccc(NC(=O)CSc2nnc(-c3ccccn3)n2N)cc1	13.2
O=C(CN1CC(=O)Oc2ccccc21)OCC(=O)c1ccccc1	1.1
O=C(NCCCn1ccnc1)C(=O)NCC1OCCN1S(=O)(=O)c1cc(F)ccc1F (configuration not stated)	3
O=S(=O)(Nc1cccc2cccnc12)c1ccc(S(=O)(=O)N2CCCC2)cc1	23.3
O=C(N[C@H]1CC[C@@H](CCn2cc(-c3ccccn3)nn2)O[C@@H]1CO)c1ccncc1	15.8
Clc1cccc(CNc2nc(-c3ccccn3)nnc2-c2ccccc2)c1	1.05
C[C@@H](Nc1nc(-c2ccccn2)nnc1-c1ccccc1)C1CCCCC1	2.26
C[C@H]1CN([C@@H](C)CO)C(=O)Cc2cc(NC(=O)Nc3cccc4ccccc34)ccc2O[C@@H]1CN(C)Cc1ccc(Oc2ccccc2)cc1	47.3
C=CCn1c(CNc2ccccc2)nnc1SCC(=O)N/N=C/c1ccc(O)cc1O	25.1
O=C(N[C@@H]1CC[C@H](CCn2cc(-c3ccccn3)nn2)O[C@@H]1CO)c1cccnc1	13.5
Cc1nnc(NC(=O)c2ccc(S(=O)(=O)N3CCCCC3C)cc2)o1 (configuration not stated)	52
COc1cc(NCCCCCCN)c2ncccc2c1OC	16.1
CN(C)C(=O)CSc1cccc2cccnc12	4.27
Cc1ccsc1C(=O)OCC(=O)Nc1nnc(-c2ccccc2)o1	14.4
O=C(NCCCn1ccnc1)C(=O)NCC1OCCN1S(=O)(=O)c1ccc(Cl)cc1 (configuration not stated)	10.8
Cc1nnc(-c2ccccc2)c(=O)n1/N=C/c1c(O)ccc2ccccc12	49.2
CCCCCc1cc(=O)oc2c(C(CCN3CCCC3)c3ccc(N(C)C)cc3)c(OC)cc(OC)c12 (configuration not stated)	6.86
O=C(Oc1cccc2cccnc12)c1ccco1	9.83
COc1ccc(NC(=O)Nc2ccc3c(c2)CC(=O)N([C@@H](C)CO)C[C@@H](C)[C@H](CN(C)Cc2ccc(Oc4ccccc4)cc2)O3)cc1	23.2
Cc1cc(=O)[nH]c(-n2ncc(C#N)c2N)n1	59.7
CCOc1ccc(NC(=O)c2c(NC(=O)CNCCN3CCOCC3)sc3c2CCC3)cc1	14.6
CCC(=O)NC(C)c1cc(Cl)c2cccnc2c1O (configuration not stated)	4.72
O=C(Nc1nnc(-c2ccco2)o1)c1ccc(N2C(=O)CCC2=O)cc1	22.8

Structure (SMILES)	AC50 [µM]
CCN1CCN(C(c2cccnc2)c2cc(Cl)c3cccnc3c2O)CC1 (configuration not stated)	4.03
OCCN1CCN(C(=S)c2ccc(Cl)c(Cl)c2)CC1	33.2
Oc1c(CN2CCN(c3ccc(F)cc3)CC2)cc(Cl)c2cccnc12	2.5
Oc1c(C(Nc2ccccn2)c2cccnc2)cc(Cl)c2cccnc12 (configuration not stated)	5.67
COc1cc(CNCc2ccccn2)ccc1OCc1c(Cl)cccc1Cl	43.4
COc1ccc(Cc2nnc(NN)[nH]c2=O)cc1OC	6.72
Cc1ccc(-n2c(-c3ccc(Br)cc3)c[n+]3c2CCc2ccc4cccnc4c2-3)cc1	1.45
C[C@H](CO)N1C[C@H](C)[C@@H](CN(C)S(=O)(=O)c2ccc(Cl)cc2)Oc2c(NC(=O)Nc3cccc4ccccc34)cccc2C1=O	62
CCN(CC)c1ccc(/C=N/N=C(N)N)c(O)c1	38.9
C/C=C/c1ccc([C@H]2[C@@H](CO)N(Cc3ccccn3)[C@H]2CNC(C)=O)cc1	45.9
Cc1cccc(C(=O)Nc2nnc(-c3cccnc3)o2)c1	21.7
N#CC1=C(N)Oc2c(ccc3cccnc23)C1c1ccccc1 (configuration not stated)	17.7
O=C(C1CCCC1)N1C[C@@H]2[C@H](c3ccccc31)[C@H](CO)N2C(=O)Cc1ccccn1	67.4
C/C(=N\NC(=O)c1cccc2ccccc12)c1ccccn1	3.15
COCCn1c(-c2ccccc2)cnc1N	31.1
O=C(COC(=O)c1ccccn1)c1cccc(Br)c1	11.8
Cc1c(CCO)c(=O)n(-c2ccccc2)n1S(=O)(=O)c1c(Cl)cc(Cl)cc1Cl	39.8
COc1ccc(C2=Nn3c(nnc3-c3ccccn3)SC2)cc1	11.2
C(=N\Nc1ncnc2nc[nH]c12)/c1cccs1	57.8
O=C(N[C@@H]1CC[C@H](CCn2cc(-c3ccccn3)nn2)O[C@H]1CO)c1cccnc1	12.2
CO[C@@H]1CN(C)C(=O)c2cc(NS(=O)(=O)CC(F)(F)F)ccc2OC[C@@H](C)N(C(=O)c2ccc3c(c2)OCO3)C[C@@H]1C	58
c1ccc(-c2nc3ccccc3[nH]2)nc1	44
COc1cc(-c2nnc(NC(=O)CS(=O)(=O)c3ccc(F)cc3)o2)cc(OC)c1OC	24.3

Structure (SMILES)	AC50 [µM]
Cc1nc2ncccn2c1-c1csc(Nc2ccc(O)cc2)n1	4.61
CCSc1nnc(NC(=O)c2ccccn2)s1	3.61
O=C(CSc1n[nH]c(-c2ccccn2)n1)Nc1ccccc1	0.706
O=C(N[C@@H]1CC[C@H](CCn2cc(-c3ccccn3)nn2)O[C@H]1CO)c1ccncc1	7.57
c1ccc(-c2nnc(Nc3nc(-c4ccccn4)nnc3-c3ccccc3)s2)cc1	1.74
Cc1ncc(CO)c(/C=N/NC(=O)c2cc3c(s2)CCCC3)c1O	11.3
O=C(CSc1cccc2cccnc12)Nc1ccccc1F	19.5
CC(Nc1nc(-c2ccccn2)nnc1-c1ccccc1)c1ccccc1 (configuration not stated)	0.564
COc1ccc(NC(=O)N[C@@H]2CC[C@H](CCn3cc(-c4ccccn4)nn3)O[C@@H]2CO)cc1	21.5
CNc1nc(C(=O)O)nc(N2CCOCC2)n1	11.6
O=C(Nc1nc(-c2ccccn2)cs1)c1ccc(F)c(S(=O)(=O)N2CCOCC2)c1	2.76
c1ccc(-c2nnc(-c3ccccn3)nc2N2CCN(c3ccncc3)CC2)cc1	< 0.5
NC(CO)C(=O)NNCc1ccc(O)c(O)c1O (configuration not stated)	13.3
O=C(CC(NCc1ccccn1)C(=O)O)Nc1ccccc1Cl (configuration not stated)	0.638
COc1ccc(Br)cc1CNc1ccc(O)cc1	37.6
O=C(NC12CC3CC(CC(C3)C1)C2)c1ccc(-c2ccccc2Cl)o1	51
O=C(N/N=C/C=C/c1ccco1)c1cnccn1	55.4
O=C(CSc1ccc(-c2ccccn2)nn1)Nc1cccc(F)c1	1.16
N#Cc1ccsc1NC(=O)c1ccccn1	21.9
CN(C)CCN(C(=O)c1ccc2c(c1)CCCC2)c1nc2cc3c(cc2s1)OCCO3	19.9
OCCCNc1nc(-c2ccccn2)nnc1-c1ccccc1	< 0.5
CCN(C(=O)COc1cccc2cccnc12)C1CCS(=O)(=O)C1 (configuration not stated)	45.1
O=Nc1ccc(O)c2ncccc12	13.6

Structure (SMILES)	AC50 [µM]
CCN(CC)c1ccc(/C=N/NC(=O)c2cnccn2)c(O)c1	11.3
O=C(c1ccccn1)N1CC[C@@H]2[C@H](CO)Nc3ccc(Br)cc3[C@@H]21	24.1
Cc1cccc(C(=O)Nc2nnc(-c3ccco3)o2)c1	5.86
O=C(COC(=O)c1cccc(O)c1)Nc1nnc(-c2ccccc2)o1	16
Cc1ccc(-c2cnc(N)n2C)cc1C	41.1
COc1cc(/C=N/Nc2nn3cnnc3c3ccccc23)ccc1O	6.83
c1ccc(-c2ccc(SCc3cccnc3)nn2)nc1	1.81
CCOC(=O)c1cnc(Nc2nc3ccccc3o2)nc1CN1CCN(C)CC1	6.81
COc1cc(/C=N/N(CCO)C2=NS(=O)(=O)c3ccccc32)cc(OC)c1OC	15.6
O=S(=O)(c1ccccc1)c1nc(-c2ccco2)oc1Nc1ccccc1	55.5
Nn1c(SCC(=O)Nc2ccc3c(c2)OCCO3)nnc1-c1ccccn1	18.6
O=C(COc1ccccc1F)Nc1nc(-c2ccccn2)cs1	8.38
COc1cc(CNCc2ccccn2)ccc1OCc1cccc(Cl)c1	62.6
O=C(NCCCn1ccnc1)Nc1cccc(Cl)c1	9.64
COc1ccc(C2CC(=O)Oc3c(C(CCN4CCCCC4)c4ccc(N(C)C)cc4)c(OC)cc(OC)c32)cc1 (configuration not stated)	10.2
C[C@H]1c2cccc(O)c2C(O)=C2C(=O)[C@]3(O)C(O)=C(C(N)=O)C(=O)[C@@H](N(C)C)C3[C@@H](O)C21 (some centres not stated)	33.5
COc1ccc(C(=O)Oc2cccc3cccnc23)cc1[N+](=O)[O-]	15
CC(Oc1cccc(Cl)c1)C(=O)Nc1nc(-c2ccccn2)cs1 (configuration not stated)	18
O=C(COC(=O)c1ccc([N+](=O)[O-])s1)NCc1ccccc1	37
CCO/C=C1/C(=O)N(Cc2ccccc2)C(=O)c2ccccc21	29
Clc1ccc(OCc2nc(-c3ccccn3)n[nH]2)cc1	5.91
Cc1cccc(S(=O)(=O)N[C@@H]2CC[C@@H](CCn3cc(-c4ccccn4)nn3)O[C@@H]2CO)c1	26.7
CC(=O)NC(c1ccc2ccccc2c1)c1ccc2cccnc2c1O (configuration not stated)	5.44

Structure (SMILES)	AC50 [µM]
COc1ccc(NC(=O)N[C@@H]2CC[C@@H](CCn3cc(-c4ccccn4)nn3)O[C@H]2CO)cc1	28.6
Nc1ccc2nc(-c3ccccn3)[nH]c2c1	10.1
Cc1ccc(S(=O)(=O)NC(=O)c2cc(C)n(CCCn3ccnc3)c2C)cc1	21.2
O=S(=O)(N[C@H]1CC[C@H](CCn2cc(-c3ccccn3)nn2)O[C@H]1CO)c1cccc(Cl)c1	26.6
Nc1nc(CN2CCN(Cc3ccccc3)CC2)nc(Nc2ccc3c(c2)OCCO3)n1	65.8
O=C(CN1C(=O)COc2ccccc21)Nc1ccc(F)cc1	3.96
Oc1c(C(c2ccccn2)N2CCCCC2)cc(Cl)c2cccnc12 (configuration not stated)	1.33
Cc1[nH]n(-c2ccccc2)c(=O)c1/C=N/NC(=O)c1cccc(F)c1	9.69
O=C(N[C@H]1CC[C@@H](CCn2cc(-c3ccccn3)nn2)O[C@@H]1CO)c1ccc(F)cc1	14.8
c1ccc(-c2cn(C[C@H]3CC[C@@H]([C@@H]4CC[C@H](Cn5cc(-c6ccccn6)nn5)O4)O3)nn2)nc1	0.659
O=S(=O)(N[C@@H]1CC[C@H](CCn2cc(-c3ccccn3)nn2)O[C@@H]1CO)c1cccc(Cl)c1	16.7
O=C(Nc1ccc(Cl)cc1)O/N=C(\c1ccccc1)c1ccccn1	17.6
O=C(CNCc1ccccn1)N1CCc2ccccc2C1	3.23
COc1cc(CNCc2ccccn2)ccc1OCc1ccc(Cl)cc1Cl	36.6
O=C(O)c1ncn(Cc2ccccc2)c1C(=O)O	13.8
COc1cc(-c2nnc(NC(=O)c3ccco3)o2)cc(OC)c1OC	66.9
c1ccc(-c2nnc(-c3ccccn3)nc2NCc2cccnc2)cc1	< 0.5
COc1ccc(C(=O)Cc2nnc(C)s2)c(OC)c1	67.3
CCOc1cc(CNCc2ccccn2)cc(Cl)c1OCC	45
COc1ccc(CCNC(=O)CSc2nnc(Cc3csc(N)n3)n2C)cc1OC	61
